From US20110086886A2, “INSECTICIDAL ISOXAZOLINES” (Bayer CropScience AG, priority 2006, published 2011) come the findings set out here.

For one experiment, the system named is Spodoptera litura larvae. Put plainly: Test for Spodoptera litura larvae (leaf dip). The format is in vivo. Particulars: effective component concentration of 500 ppm, 3rd-instar larvae on dipped sweet potato leaves, after 7 days; for pest or weed control at 500 ppm: foliar, 168 h, read-out: insecticidal ratio. The procedure: (§1) In order to obtain a preparation of a proper active compound, 1 part by weight of an active compound was mixed with the stated amounts of solvent and emulsifier and the mixture was diluted to a specified concentration with water.
The leaves of sweat potatoes were dipped in the test solution diluted to a specified concentration with water. After these leaves were dried in air to remove the chemical solution, they were placed in a Petri dish of 9 cm in diameter, in which 10 Spodoptera litura larvae of the 3rd-instar were set free. The Petri dish was placed in a thermostatic chamber kept at 25° C. and the leaves of sweat potatoes were added after 2 days and 4 days, to examine the number of dead larvae after 7 days, thereby calculating the insecticidal ratio of the chemical solution.
In this test, an average of the results in two Petri dishes in one section was calculated.

Another experiment has as its system Aulacophora femoralis. Put plainly: Test for Aulacophora femoralis (spray test). The experiment is classed as in vivo. Particulars: effective component concentration of 500 ppm; 2nd-instar, dipped cucumber leaves; after 7 days. The procedure: as §1
The leaves of cucumbers were dipped in the aqueous solution diluted to a specified concentration with water. After the chemical solution was dried in air, these leaves were placed in a plastic cup, in which sterilized black soil was placed. 5 Aulacophora femoralis of the 2nd-instar were set free in the soil, to examine the number of dead insects after 7 days, thereby calculating the insecticidal ratio of the chemical solution.

Consider `O=[N+]([O-])c1cc(C2=NOC(c3cc(C(F)(F)F)cc(C(F)(F)F)c3)(C(F)(F)F)C2)ccc1-n1cncn1` (racemic) [Compound 136], for which the insecticidal ratio with Spodoptera litura larvae and in the experiment with Aulacophora femoralis was 100% throughout.

As to `O=[N+]([O-])c1cc(C2=NOC(c3cccc(C(F)(F)F)c3)(C(F)(F)F)C2)ccc1-n1ncnn1` (stereo not shown) [Compound 176], the insecticidal ratio in the experiment with Spodoptera litura larvae turned out to be 100%. Consider `COc1cc(C2=NOC(c3cc(Cl)cc(Cl)c3)(C(F)(F)F)C2)ccc1-n1cncn1` (racemic) [Compound 103], for which the insecticidal ratio in the experiment with Spodoptera litura larvae and in the experiment on Aulacophora femoralis was 100% each time. Turning to `FC(F)(F)c1cc(C2=NOC(c3cc(Cl)cc(Cl)c3)(C(F)(F)F)C2)ccc1-n1cncn1` (racemic) [Compound 100], the insecticidal ratio in the experiment on Spodoptera litura larvae and in the experiment with Aulacophora femoralis was 100% in each case.

Regarding `CC(=O)Nc1cc(C2=NOC(c3cc(Cl)cc(Cl)c3)(C(F)(F)F)C2)ccc1-n1cncn1` (stereo not shown) [Compound 106, N-{5-[5-(3,5-dichlorophenyl)-5-(trifluoromethyl)-4,5-dihydroisoxazol-3-yl]-2-(1H-1,2,4-triazol-1-yl)phenyl}acetamide], the pest or weed control at 500 ppm with Spodoptera litura larvae was determined as 100%. Also, the insecticidal ratio in the experiment on Aulacophora femoralis was determined as 100%. Consider `O=[N+]([O-])c1cc(C2=NOC(c3cccc(C(F)(F)F)c3)(C(F)(F)F)C2)ccc1-n1cncn1` (racemic) [Compound 127], for which the insecticidal ratio with Spodoptera litura larvae and in the experiment on Aulacophora femoralis was 100% in each case. For `FC(F)(F)C1(c2cc(Cl)cc(Cl)c2)CC(c2ccc(-n3cnnc3)cc2)=NO1` (stereo not shown) [Compound 141, 4-{4-[5-(3,5-dichlorophenyl)-5-(trifluoromethyl)-4,5-dihydroisoxazol-3-yl]phenyl}-4H-1,3,4-triazole], the pest or weed control at 500 ppm in the experiment with Spodoptera litura larvae came to 100%.

For `O=[N+]([O-])c1cc(C2=NOC(c3cc(Cl)cc(Cl)c3)(C(F)(F)F)C2)ccc1-n1cc(Br)cn1` (stereo not shown) [Compound 27], the insecticidal ratio with Spodoptera litura larvae is recorded as 100%. For the compound `FC(F)(F)C1(c2cc(Cl)cc(Cl)c2)CC(c2ccc(-n3cc(Cl)cn3)cc2)=NO1` (stereo not shown) [Compound 4], the insecticidal ratio in the experiment on Spodoptera litura larvae is 100%. For `FC(F)(F)C1(c2cc(Cl)cc(Cl)c2)CC(c2ccc(-n3cc(Br)cn3)cc2)=NO1` (stereo not shown) [Compound 5], the insecticidal ratio with Spodoptera litura larvae was 100%. As for `O=[N+]([O-])c1cc(C2=NOC(c3cc(Cl)cc(Cl)c3)(C(F)(F)F)C2)ccc1-n1cc(Cl)cn1` (stereo not shown) [Compound 26], the insecticidal ratio with Spodoptera litura larvae is 100%.

In the case of `N#Cc1cc(C2=NOC(c3cccc(C(F)(F)F)c3)(C(F)(F)F)C2)ccc1-n1cnnn1` (stereo not shown) [Compound 160], the insecticidal ratio with Spodoptera litura larvae and in the experiment on Aulacophora femoralis was 100% throughout.

Turning to `FC(F)(F)c1ccc(C2(C(F)(F)F)CC(c3ccc(-n4cncn4)cc3)=NO2)cc1` (racemic) [Compound 123], in the experiment with Spodoptera litura larvae, the insecticidal ratio is 100%.

On to `COC(=O)Nc1cc(C2=NOC(c3cc(Cl)cc(Cl)c3)(C(F)(F)F)C2)ccc1-n1cncn1` (racemic) [Compound 109], for which the insecticidal ratio in the experiment on Spodoptera litura larvae and in the experiment with Aulacophora femoralis was 100% throughout.

As to `O=[N+]([O-])c1cc(C2=NOC(c3cccc(Cl)c3)(C(F)(F)F)C2)ccc1-n1cnnn1` (racemic) [Compound 147], the insecticidal ratio in the experiment on Aulacophora femoralis is on record as 100%. For `FC(F)(F)C1(c2cc(Cl)cc(Cl)c2)CC(c2ccc(-n3cnnn3)cc2)=NO1` (stereo not shown) [Compound 148, 1-{4-[5-(3,5-dichlorophenyl)-5-(trifluoromethyl)-4,5-dihydroisoxazol-3-yl]phenyl}-1H-tetrazole], in the experiment with Spodoptera litura larvae, the pest or weed control at 500 ppm was determined as 100%. Also, in the experiment with Aulacophora femoralis, the insecticidal ratio came out at 100%. As for `N#Cc1cc(C2=NOC(c3cc(Cl)cc(Cl)c3)(C(F)(F)F)C2)ccc1-n1cccn1` (stereo not shown) [Compound 13, 5-[5-(3,5-dichlorophenyl)-5-(trifluoromethyl)-4,5-dihydroisoxazol-3-yl]-2-(1H-pyrazol-1-yl)benzonitrile], the pest or weed control at 500 ppm in the experiment on Spodoptera litura larvae is 100%. Take `Nc1cc(C2=NOC(c3cc(Cl)cc(Cl)c3)(C(F)(F)F)C2)ccc1-n1cncn1` (stereo not shown) [Compound 105, 5-[5-(3,5-dichlorophenyl)-5-(trifluoromethyl)-4,5-dihydroisoxazol-3-yl]-2-(1H-1,2,4-triazol-1-yl)aniline]: the pest or weed control at 500 ppm with Spodoptera litura larvae amounted to 100%. For the compound `FC(F)(F)c1cc(C(F)(F)F)cc(C2(C(F)(F)F)CC(c3ccc(-n4cncn4)cc3)=NO2)c1` (racemic) [Compound 132], the insecticidal ratio in the experiment with Spodoptera litura larvae and with Aulacophora femoralis was 100% throughout.

As for `O=[N+]([O-])c1cc(C2=NOC(c3cc(C(F)(F)F)cc(C(F)(F)F)c3)(C(F)(F)F)C2)ccc1-n1cnnn1` (stereo not shown) [Compound 166, 1-(4-{5-[3,5-bis(trifluoromethyl)phenyl]-5-(trifluoromethyl)-4,5-dihydroisoxazol-3-yl}-2-nitrophenyl)-1H-tetrazole], the pest or weed control at 500 ppm in the experiment with Spodoptera litura larvae is 100%. For the same compound, the insecticidal ratio in the experiment on Aulacophora femoralis stood at 100%. Consider `FC(F)(F)c1cccc(C2(C(F)(F)F)CC(c3ccc(-n4cnnn4)cc3)=NO2)c1` (stereo not shown) [Compound 157], for which the insecticidal ratio in the experiment with Spodoptera litura larvae and in the experiment on Aulacophora femoralis was 100% each time. Regarding `FC(F)(F)C1(c2cc(Cl)cc(Cl)c2)CC(c2ccc(-n3cncn3)c(Br)c2)=NO1` (racemic) [Compound 97], the insecticidal ratio in the experiment with Spodoptera litura larvae and in the experiment with Aulacophora femoralis was 100% each time.

With `O=[N+]([O-])c1cc(C2=NOC(c3cc(Cl)cc(Cl)c3)(C(F)(F)F)C2)ccc1-n1cccn1` (stereo not shown) [Compound 23], the insecticidal ratio in the experiment on Spodoptera litura larvae was 100%. As for `N#Cc1cc(C2=NOC(c3cc(Cl)cc(Cl)c3)(C(F)(F)F)C2)ccc1-n1cc(Br)cn1` (stereo not shown) [Compound 18], the insecticidal ratio in the experiment on Spodoptera litura larvae is given as 100%. On the same count and under the same terms, for `N#Cc1cc(C2=NOC(c3cc(C(F)(F)F)cc(C(F)(F)F)c3)(C(F)(F)F)C2)ccc1-n1cc([N+](=O)[O-])cn1` (stereo not shown) [Compound 47] the value was 100%; for `O=[N+]([O-])c1cc(C2=NOC(c3cc(Cl)cc(Cl)c3)(C(F)(F)F)C2)ccc1-n1nccn1` (stereo not shown) [Compound 72], 100%. With `N#Cc1cc(C2=NOC(c3cc(Cl)cc(Cl)c3)(C(F)(F)F)C2)ccc1-n1cc(F)cn1` (stereo not shown) [Compound 16], in the experiment with Spodoptera litura larvae, the insecticidal ratio stood at 100%. With `O=[N+]([O-])c1cc(C2=NOC(c3cc(Cl)cc(Cl)c3)(C(F)(F)F)C2)ccc1-n1cc(C(F)(F)F)cn1` (stereo not shown) [Compound 29], the insecticidal ratio in the experiment with Spodoptera litura larvae came out at 100%. Take `FC(F)(F)C1(c2cc(Cl)cc(Cl)c2)CC(c2ccc(-n3cccn3)cc2)=NO1` (stereo not shown) [Compound 2]: the insecticidal ratio in the experiment on Spodoptera litura larvae is reported as 100%.

`O=[N+]([O-])c1cc(C2=NOC(c3cc(F)cc(F)c3)(C(F)(F)F)C2)ccc1-n1cncn1` (stereo not shown) [Compound 85]: in the experiment on Aulacophora femoralis, the insecticidal ratio was 100%. As for `Fc1cc(C2=NOC(c3cc(Cl)cc(Cl)c3)(C(F)(F)F)C2)ccc1-n1cncn1` (racemic) [Compound 93], the insecticidal ratio in the experiment with Spodoptera litura larvae is given as 100%. As to `O=[N+]([O-])c1cnn(-c2ccc(C3=NOC(c4cc(Cl)cc(Cl)c4)(C(F)(F)F)C3)cc2Br)c1` (stereo not shown) [Compound 12], in the experiment with Spodoptera litura larvae, the insecticidal ratio is 100%. For `O=[N+]([O-])c1cc(C2=NOC(c3cc(Cl)cc(Cl)c3)(C(F)(F)F)C2)ccc1-n1ccnc1` (stereo not shown) [Compound 52], the insecticidal ratio with Spodoptera litura larvae came to 100%. Consider `FC(F)(F)C1(c2cc(Cl)cc(Cl)c2)CC(c2ccc(-n3cnnn3)c(I)c2)=NO1` (stereo not shown) [Compound 152], for which, in the experiment with Spodoptera litura larvae, the insecticidal ratio is recorded as 100%. Still for that read-out and setting: the figure for `N#Cc1cc(C2=NOC(c3cc(Cl)cc(Cl)c3)(C(F)(F)F)C2)ccc1-n1cc(I)cn1` (stereo not shown) [Compound 19] is 100%. As to `O=[N+]([O-])c1cc(C2=NOC(c3cc(Cl)cc(Cl)c3)(C(F)(F)F)C2)ccc1-n1ccnn1` (stereo not shown) [Compound 64], the insecticidal ratio in the experiment with Aulacophora femoralis was found to be 100%. As for `FC(F)(F)C1(c2cc(Cl)cc(Cl)c2)CC(c2ccc(-n3cccn3)c(Cl)c2)=NO1` (stereo not shown) [Compound 8], the insecticidal ratio in the experiment with Spodoptera litura larvae worked out at 100%.

Consider “1-(4-{5-[3,5-bis(trifluoromethyl)phenyl]-5-(trifluoromethyl-4,5-dihydroisoxazol-3-yl}-2-nitrophenyl)-2H-tetrazole [Compound 178]”, for which, in the experiment on Spodoptera litura larvae, the insecticidal ratio was found to be 100%. `FC(F)(F)c1cc(C(F)(F)F)cc(C2(C(F)(F)F)CC(c3ccc(-n4cncn4)c(Cl)c3)=NO2)c1` (racemic) [Compound 133]: the insecticidal ratio with Spodoptera litura larvae is 100%.

Take `N#Cc1cc(C2=NOC(c3ccccc3)(C(F)(F)F)C2)ccc1-n1cncn1` (stereo not shown) [Compound 80]: in the experiment with Aulacophora femoralis, the insecticidal ratio is given as 100%. In the case of `FC(F)(F)C1(c2cc(Cl)cc(Cl)c2)CC(c2ccc(-n3ccnc3)cc2)=NO1` (stereo not shown) [Compound 48], the insecticidal ratio with Spodoptera litura larvae is 100%. Turning to `Cc1cnn(-c2ccc(C3=NOC(c4cc(Cl)cc(Cl)c4)(C(F)(F)F)C3)cc2[N+](=O)[O-])c1` (stereo not shown) [Compound 24], the insecticidal ratio in the experiment with Spodoptera litura larvae turned out to be 100%. As for `N#Cc1cnn(-c2ccc(C3=NOC(c4cc(Cl)cc(Cl)c4)(C(F)(F)F)C3)cc2)c1` (stereo not shown) [Compound 7], the insecticidal ratio in the experiment with Spodoptera litura larvae worked out at 100%. Regarding `FC(F)(F)c1cc(C(F)(F)F)cc(C2(C(F)(F)F)CC(c3ccc(-n4cnnn4)cc3)=NO2)c1` (stereo not shown) [Compound 162], the insecticidal ratio in the experiment on Spodoptera litura larvae was found to be 100%.

Regarding `O=[N+]([O-])c1cc(C2=NOC(c3cc(Cl)cc(Cl)c3)(C(F)(F)F)C2)ccc1-n1cc(I)cn1` (stereo not shown) [Compound 28], the insecticidal ratio in the experiment on Spodoptera litura larvae came to 100%. As for `FC(F)(F)C1(c2cc(Cl)cc(Cl)c2)CC(c2ccc(-n3cncn3)cc2Cl)=NO1` (racemic) [Compound 96], in the experiment on Spodoptera litura larvae, the insecticidal ratio worked out at 100%.
